Where two headings read alike, the source gives them in different places.
Experiments:
MurA = MurA (Escherichia coli, UniProt P0A749); assay: Inhibition of MurA, colorimetric malachite green method; assay type: biochemical, bacterial; conditions: Table 1; for MurA RA (%): residual activity at 100 µM; for IC50: read-out: MurA IC50
Experimental: Inhibition of Mur enzymes was monitored with the colorimetric malachite green method, which measured orthophosphate formed during reaction. The mixtures with a final volume of 50 µL contained:
MurA: 50 mM HEPES-NaOH, pH 7.8, 0.005% Triton X-114, 200 µM uridine-diphosphate-N-acetylglucosamine, 100 µM phosphoenolpyruvate, purified MurA, and 50 or 100 µM of each compound tested.
All compounds were soluble in the assay mixtures containing 5% DMSO (v/v). After incubation for 15 min (20 min for DdlB) at 37 °C, the enzyme reaction was terminated by addition of Biomol® reagent (100 µL) and absorbance was measured after 5 min at 650 nm (Synergy™ H4 microplate reader; BioTek Instruments, Inc., BioTek Gen5 Data Analysis Software, version 2.9, Santa Clara, CA, USA). All experiments were performed in duplicate.

[1] = target: T1, murine acetylcholinesterase (mAChE) (Mus musculus, UniProt P21836); assay: biochemical; assay type: biochemical; conditions: for remaining activity at 10 µM: residual activity at 10 µM, read-out: mAChE RA (%)
T1 sequence (P21836 32-614): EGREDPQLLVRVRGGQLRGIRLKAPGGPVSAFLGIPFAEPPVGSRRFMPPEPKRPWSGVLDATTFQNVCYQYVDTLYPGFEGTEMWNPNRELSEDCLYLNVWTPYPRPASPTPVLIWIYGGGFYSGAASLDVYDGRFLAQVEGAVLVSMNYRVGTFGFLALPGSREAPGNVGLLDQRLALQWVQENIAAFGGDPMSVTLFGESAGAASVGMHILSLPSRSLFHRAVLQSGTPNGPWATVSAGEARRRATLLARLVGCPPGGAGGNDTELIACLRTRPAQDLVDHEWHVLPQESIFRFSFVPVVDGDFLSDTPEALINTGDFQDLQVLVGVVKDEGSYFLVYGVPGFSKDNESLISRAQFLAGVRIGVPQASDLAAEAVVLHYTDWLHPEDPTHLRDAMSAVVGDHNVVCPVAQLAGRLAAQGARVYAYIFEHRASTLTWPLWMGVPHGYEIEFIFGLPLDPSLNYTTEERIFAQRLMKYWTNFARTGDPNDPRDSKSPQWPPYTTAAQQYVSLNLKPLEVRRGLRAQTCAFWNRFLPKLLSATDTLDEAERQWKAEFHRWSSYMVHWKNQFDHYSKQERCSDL
Experimental: (§1) Enzyme solutions were prepared by diluting the concentrated enzyme stock solutions (4.6 mg/mL in 10 mM MES-NaOH buffer, pH 6.5) in a sodium phosphate-buffered solution (0.1 M, pH 8.0). […] The final organic solvent (DMSO) content was always 1% (v/v). Reactions were initiated by adding the substrate to the enzyme and inhibitor, which were preincubated for 5 min. […] To determine the blank value (b), the enzyme solution was replaced by a phosphate-buffered solution. The initial velocity (v) was calculated from the slope of the linear trend obtained, with each measurement performed in triplicate. The inhibitory potencies were expressed as RA=(vi − b)/(vo − b), where vi is the velocity in the presence of the test compounds and vo is the control velocity in the presence of DMSO. Seven different concentrations of each compound were used for the IC50 measurements. IC50 values were obtained by plotting the residual enzyme activities against the applied inhibitor concentrations, fitting the experimental data to the 4-parameter Hill equation:(1) Y=Bottom+(Top−Bottom)/1+10^((LogIC50−X)×Hill Slope) where X is the logarithm of the inhibitor concentration, and Y is the residual activity. GraphPad Prism 8.2.0 (GraphPad Software, San Diego, CA, USA) was used for the fitting procedure.

[2] = target: human butyrylcholinesterase (hBChE) (Homo sapiens, UniProt P06276); assay: biochemical; assay type: biochemical; conditions: for IC50: read-out: hBChE IC50; for remaining activity at 10 µM: read-out: hBChE RA (%)
Chain of human butyrylcholinesterase (hBChE) (P06276 29-602): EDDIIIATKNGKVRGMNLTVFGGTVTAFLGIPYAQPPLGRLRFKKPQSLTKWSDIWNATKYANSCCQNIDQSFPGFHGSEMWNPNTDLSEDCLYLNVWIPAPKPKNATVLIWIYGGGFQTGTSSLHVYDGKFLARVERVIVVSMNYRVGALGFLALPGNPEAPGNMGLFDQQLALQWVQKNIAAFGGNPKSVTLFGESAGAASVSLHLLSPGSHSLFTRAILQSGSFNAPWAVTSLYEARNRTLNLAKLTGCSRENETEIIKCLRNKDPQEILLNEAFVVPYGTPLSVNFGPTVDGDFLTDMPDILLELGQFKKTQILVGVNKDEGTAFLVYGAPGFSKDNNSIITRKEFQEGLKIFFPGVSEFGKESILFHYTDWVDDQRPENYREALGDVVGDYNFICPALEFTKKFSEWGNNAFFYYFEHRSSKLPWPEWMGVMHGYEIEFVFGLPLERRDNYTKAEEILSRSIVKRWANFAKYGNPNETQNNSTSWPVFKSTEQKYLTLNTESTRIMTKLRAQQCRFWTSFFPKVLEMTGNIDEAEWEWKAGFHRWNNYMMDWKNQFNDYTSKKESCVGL
Experimental: as §1

hMAO-B = target: T2, hMAO-B (Homo sapiens, UniProt P27338); assay: biochemical; conditions: residual activity at 10 µM; Table 3
T2 construct: purchased Sigma Aldrich; host or cells: BTI-TN-5B1-4 baculovirus-infected insect cells
T2 sequence (P27338 1-520): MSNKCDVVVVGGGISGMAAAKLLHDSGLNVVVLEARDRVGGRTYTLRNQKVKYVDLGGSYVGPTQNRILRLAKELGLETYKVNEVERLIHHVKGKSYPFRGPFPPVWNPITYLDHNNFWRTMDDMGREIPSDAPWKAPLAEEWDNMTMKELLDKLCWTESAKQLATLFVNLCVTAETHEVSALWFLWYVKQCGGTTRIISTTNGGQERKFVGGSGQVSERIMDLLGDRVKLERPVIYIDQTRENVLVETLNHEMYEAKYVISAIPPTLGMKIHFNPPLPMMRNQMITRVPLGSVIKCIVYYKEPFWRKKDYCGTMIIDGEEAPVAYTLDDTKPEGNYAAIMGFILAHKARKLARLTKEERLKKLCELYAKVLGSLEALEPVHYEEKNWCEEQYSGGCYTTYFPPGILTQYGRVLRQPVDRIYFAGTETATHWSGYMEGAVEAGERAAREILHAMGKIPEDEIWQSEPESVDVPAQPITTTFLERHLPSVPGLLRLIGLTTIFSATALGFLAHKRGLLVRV
Text: The effects of the compounds on hMAO-A and hMAO-B were investigated using a fluorimetric assay, following a method previously described in the literature. Recombinant human microsomal hMAO enzymes expressed in BTI-TN-5B1-4 baculovirus-infected insect cells, horseradish peroxidase (HRP, type II, lyophilized powder), and p-tyramine hydrochloride were purchased from Sigma Aldrich. 10-Acetyl-3,7-dihydroxyphenoxazine (Amplex Red reagent) was synthesized as described in the literature.
After preincubation, the reaction was started by adding final concentrations of 200 µM Amplex Red reagent, 2 U/mL HRP, and 1 mM p-tyramine hydrochloride. Resorufin production was quantified based on the fluorescence produced (λex = 530 nm; λem = 590 nm) at 37 °C over a 20 min period. For the control experiments, DMSO was used instead of appropriate dilutions of the compounds in DMSO. For the determination of blank (b), the enzyme solution was replaced by a phosphate-buffered solution. Initial velocities were calculated from the obtained trend, with each measurement performed in duplicate. Specific fluorescence emission to determine the final results was calculated after subtracting the blank activity (b). Inhibitory potencies were expressed as RAs, and IC50 values were calculated as described in the section “Inhibition of hBChE and mAChE” above.

[3] = residual activity at 10 µM, Table 4

Chain of MurA (P0A749 whole entry): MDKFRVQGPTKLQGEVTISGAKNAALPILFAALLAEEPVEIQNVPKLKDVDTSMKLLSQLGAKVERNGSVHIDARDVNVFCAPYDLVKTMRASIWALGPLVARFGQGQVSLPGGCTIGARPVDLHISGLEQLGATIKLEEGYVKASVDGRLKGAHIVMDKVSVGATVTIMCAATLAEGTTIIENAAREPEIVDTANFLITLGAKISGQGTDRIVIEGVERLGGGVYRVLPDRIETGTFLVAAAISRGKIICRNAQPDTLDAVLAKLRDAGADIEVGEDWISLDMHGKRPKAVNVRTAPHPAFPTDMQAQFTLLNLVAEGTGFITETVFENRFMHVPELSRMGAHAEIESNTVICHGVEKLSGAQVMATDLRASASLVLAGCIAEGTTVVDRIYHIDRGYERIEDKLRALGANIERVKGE

Structure (SMILES) | MurA RA (%) (MurA) | mAChE RA (%) [1] [%] | hBChE RA (%) [2] [%] | remaining activity at 10 µM ([1]; Table 4) [%] | IC50 ([2]; Table 4, IC50 ± SEM) [µM] | remaining activity at 10 µM [2, 3] [%] | other results
CC(C)(C)CCN(Cc1ccc(C#Cc2ccc(F)cc2)cc1)C(=O)c1ccc(C(=O)O)cc1 [Compound 3] | 58 | 100 | 100 |  |  |  | 
C[C@H](NCc1ccc(OCc2cccc(F)c2)cc1)C(N)=O [Safinamide, reference compound] |  |  |  |  |  |  | hMAO-B RA [%] (hMAO-B): 0%
CCCCCCN(Cc1ccc(C#Cc2ccc(CCCC)cc2)cc1)c1ccc(F)c(C(=O)OC)c1 [Compound 7] | 100 | 19 | 45 |  |  |  | IC50 [1]: 0.682 ± 0.086 µM; IC50 [2]: ~19.7 µM
CCCCc1ccc(C#Cc2ccc(CN(CC3CC3)c3ccc(O)c(C(=O)O)c3)cc2)cc1 [Compound 5] | 0 | 2 | 16 |  |  |  | IC50 (MurA; IC50 ± SEM): 7 ± 3 µM; IC50 [1]: 1.1 ± 0.1 µM; IC50 [2]: 2.4 ± 0.2 µM
CCCCCCN(Cc1ccc(C#Cc2ccc(C(C)(C)C)cc2)cc1)c1ccc(F)c(C(=O)O)c1 [Compound 8] | 0 | 22 | 71 |  |  |  | IC50 (MurA; IC50 ± SEM): 14 ± 5 µM; IC50 [1]: 0.368 ± 0.052 µM
CCCCc1ccc(C#Cc2ccc(CN(C(=O)CC(C)(C)C)c3ccc(F)c(C(=O)O)c3)cc2)cc1 [Compound 1] | 0 | 2 | 100 |  |  |  | MurA IC50 (µM) (MurA; IC50 ± SEM): No clear dose-dependency; IC50 [1]: 1.2 ± 0.05 µM
N#Cc1ccc2[nH]cc(CCCCN3CC=C(c4ccc5c(c4)OCC5)CC3)c2c1 [Compound 35] |  |  |  | 59 | 2.9 ± 0.1 | 31 | 
OCC1=C(c2ccc(F)cc2)CCN(CCCCc2c[nH]c3ccccc23)C1 [Compound 34] |  |  |  | 31 | 0.493 ± 0.088 | 7 | IC50 ([1]; Table 4, IC50 ± SEM): 7 ± 1 µM
Nc1c2c(nc3ccccc13)CCCC2 [Tacrine, reference compound] |  |  |  |  |  |  | hBChE RA (%) ([2]; residual activity at 10 µM, Table 1): 0%
C1=C(c2cccc3ccccc23)CCN(CCCCc2c[nH]c3ccccc23)C1 [Compound 30] |  |  |  | 76 | 0.4 ± 0.057 | 6 | 
COc1ccc2[nH]cc(CCCCN3CCc4c([nH]c5ccc(OC)cc45)C3)c2c1 [Compound 37] |  |  |  | 88 | 2.3 ± 0.1 | 23 | 
O=C(O)c1ccc2[nH]cc(CCCCN3CCc4c(c(=O)oc5ccccc45)C3)c2c1 [Compound 36] |  |  |  | 78 |  | 97 | 
COC(=O)CNC(=O)c1ccc2[nH]cc(CCCCN3CC=C(c4ccccc4)CC3)c2c1 [Compound 38] |  |  |  | 100 | 0.319 ± 0.051 | 4 | 
C[C@@H]1O[C@@H]1P(=O)(O)O [Fosfomycin, reference compound] | 0 |  |  |  |  |  | IC50 (MurA; IC50 ± SEM): 0.24 ± 0.02 µM
O=C(O)c1cccc2[nH]cc(CCCCN3CC=C(c4ccccc4)CC3)c12 [Compound 32] |  |  |  | 71 | 14.5 ± 2.2 | 49 | 
Cc1ccc(C#Cc2ccc(CN(CCC(C)(C)C)c3ccc(O)c(C(=O)O)c3)cc2)cc1 [Compound 4] | 14 | 100 | 100 |  |  |  | IC50 (MurA; IC50 ± SEM): 102 ± 15 µM
Fc1ccc2[nH]cc(CCCCN3CC=C(c4ccccc4)CC3)c2c1 [Compound 39] |  |  |  | 47 | 0.07 ± 0.005 | 0 | IC50 ([1]; Table 4, IC50 ± SEM): 15 ± 5 µM
Oc1ccc2c(CCCCN3CC=C(c4ccccc4)CC3)c[nH]c2c1 [Compound 33] |  |  |  | 61 | 0.267 ± 0.001 | 3 | 
CC(C)c1ccc2[nH]cc(CCCCN3CC=C(c4ccccc4)CC3)c2c1 [Compound 31] |  |  |  | 44 | 0.0599 ± 0.0055 | 0 | IC50 ([1]; Table 4, IC50 ± SEM): 14 ± 4 µM
CC(C)(C)CCN(Cc1ccc(C#Cc2ccc(F)cc2)cc1)C(=O)c1ccc(O)c(C(=O)O)c1 [Compound 6] | 0 | 13 | 95 |  |  |  | IC50 (MurA; IC50 ± SEM): 27 ± 7 µM; IC50 [1]: 4.8 ± 1.3 µM
